pIC50: −log10 of the molar value.
Experiments:
HER-1 = HER-1 (Homo sapiens, UniProt P00533); assay: HER-1 kinase inhibition; type: biochemical; details: Table 5; read-out: HER-1, IC50 class
Cdk1/cycB = Cdk1/cycB (UniProt P06493); assay: Cdk1/cycB kinase assay, histone H1 substrate; type: biochemical, starfish; details: Table 5; read-out: CDK1/B, IC50 class
Summary of the method: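 Active Cdk1/cycB was purified from starfish oocytes arrested in M phase with 1-methyladenine, using p9CKShs-sepharose. Reactions ran 20 min at ambient temperature and were stopped with EDTA. Phosphorylated product was captured on Immobilon P membranes, washed in H3PO4 and EtOH, and counted by scintillation.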

Tek = molecular target: T1, Tek (Homo sapiens, UniProt Q02763); assay: Tek kinase inhibition, GST-fused kinase domain; type: biochemical; details: Table 5; read-out: Tek, IC50 class
T1 construct: N-terminally GST-fused (pAcG1, Pharmingen) KDR, Flt-1, Flk-1, Tek and PDGFR-β kinase domains are obtained from ProQinase, Freiburg, Germany; host or cells: Sf9 or High Five (baculovirus)
Source text: The inhibition of IGF-1R and Ins-R can be determined as follows: The baculovirus donor vector pfbgx3IGFIRcd is used to generate a recombinant baculovirus that expresses the amino acid region 950-1337 of the mature peptide cytoplasmic domain of the human IGF-IR. To generate the cDNA fragment encoding the amino acid region 919-1343 of the intra-cytoplasmic kinase domain of the human insulin receptor, pC5hInsR is used. The fragments of the human IGF-IR and Ins-R are cloned, expressed and small-scale purified as a factor Xa-cleavable glutathione-S-transferase (GST)-fusion protein using the Bac-to-Bac™ system (GIBCO BRL) of recombinant baculovirus generation. Virus containing media is collected from the transfected cell culture and used for infection to increase its titer. Virus containing media obtained after two rounds of infection is used for large-scale protein expression. Cell extracts are prepared and loaded onto a glutathione-Sepharose (Pharmacia) column. After washing, the GST-tagged proteins are then eluted with a glutathione-containing buffer. Purified protein is stored at −70° C. in elution buffer. Tyrosine protein kinase assays with purified GST-IGF-1R and GST-ins-R are carried in a final volume of 30 μl containing 20 mM Tris-HCl, pH 7.6, 10 mM MgCl2, 0.01 mM Na3VO4, 1% DMSO, 1 mM DTT, 3 μg/ml poly(Glu,Tyr) 4:1 and 10 μM ATP (γ-[^33P]-ATP 0.1 μCi). The assay is performed in 96-well plates at ambient temperature for 20 min and terminated by addition of 25 μl 0.05 M EDTA pH 7.0. An aliquot of 40 μl is spotted with a multichannel dispenser on Whatman P81 membranes mounted in a Millipore Microtiter filter manifold connected to a low vacuum source. After elimination of liquid, the membrane is transferred to a sequence of 4 washing baths containing 0.5% H3PO4 and one with EtOH (shaking incubation for 10 min each), dried, mounted onto a Hewlett Packard TopCount manifold added 10 μl Microscint® and counted. Compounds of formula (I) show up to 90% inhibition of Ins-R at 10,000 nM, preferably between 60-90% inhibition. The inhibition of Tek can be determined as follows: The procedure of the expression, purification and assay these kinases has been described. Fabbro et al., Pharmacol. Ther. 82(2-3) 293-301 (1999). In brief, the glutathione S-transferase (GST) gene from the pAcG1 vector (Pharmingen) is excised with EcoRV and EcoRI and inserted into the cloning site of the Fast-Bac baculoviral vector (GIBCO) creating a 5530 bp vector with N-terminal cloning sites derived from the pAcG1 fusion vector (FBG0). The C-terminal cloning site may be any cloning site (from the Fast-Bac vector) downstream of the N-terminal cloning site used. N-terminally GST-fused (pAcG1, Pharmingen) KDR, Flt-1, Flk-1, Tek and PDGFR-β kinase domains are obtained from ProQinase, Freiburg, Germany. Tek is recloned into the FBG1 vector by EcoRI excision and ligation into EcoRI digested FBG1 (FBG1-Tek). The coding sequences for the whole cytoplasmic domain of c-Kit (aa 544-976) and c-Fms (aa 538-972) are amplified by PCR from human uterus and from human bone marrow cDNA libraries (Clontech), respectively. The amplified DNA fragments are fused to GST by cloning them into FBG1 as BamHI-EcoRI insertions, to yield FBG1-c-Kit and FBG1-c-Fms. Tek is recloned into the FBG0 transfer vector by EcoRI excision and ligation into EcoRI digested FBG0 (FBG-Tie2/Tek). FGFR-1 and c-met kinase domains are obtained by PCR from human A431 cells. N-terminal primers contain an overhanging EcoRI site, while C-terminal primers contain a XhoI site to aid cloning into the transfer vectors. After digestion of both the PCR fragments and FBG0 the cleavage products are gel-purified and ligated together to form the kinase constructs (FBG-Met, FBG-FGFR-1).
Viruses for each of the kinases are made according to the protocol supplied by GIBCO. […]

Chain of HER-1 (P00533 25-1210, species assumed): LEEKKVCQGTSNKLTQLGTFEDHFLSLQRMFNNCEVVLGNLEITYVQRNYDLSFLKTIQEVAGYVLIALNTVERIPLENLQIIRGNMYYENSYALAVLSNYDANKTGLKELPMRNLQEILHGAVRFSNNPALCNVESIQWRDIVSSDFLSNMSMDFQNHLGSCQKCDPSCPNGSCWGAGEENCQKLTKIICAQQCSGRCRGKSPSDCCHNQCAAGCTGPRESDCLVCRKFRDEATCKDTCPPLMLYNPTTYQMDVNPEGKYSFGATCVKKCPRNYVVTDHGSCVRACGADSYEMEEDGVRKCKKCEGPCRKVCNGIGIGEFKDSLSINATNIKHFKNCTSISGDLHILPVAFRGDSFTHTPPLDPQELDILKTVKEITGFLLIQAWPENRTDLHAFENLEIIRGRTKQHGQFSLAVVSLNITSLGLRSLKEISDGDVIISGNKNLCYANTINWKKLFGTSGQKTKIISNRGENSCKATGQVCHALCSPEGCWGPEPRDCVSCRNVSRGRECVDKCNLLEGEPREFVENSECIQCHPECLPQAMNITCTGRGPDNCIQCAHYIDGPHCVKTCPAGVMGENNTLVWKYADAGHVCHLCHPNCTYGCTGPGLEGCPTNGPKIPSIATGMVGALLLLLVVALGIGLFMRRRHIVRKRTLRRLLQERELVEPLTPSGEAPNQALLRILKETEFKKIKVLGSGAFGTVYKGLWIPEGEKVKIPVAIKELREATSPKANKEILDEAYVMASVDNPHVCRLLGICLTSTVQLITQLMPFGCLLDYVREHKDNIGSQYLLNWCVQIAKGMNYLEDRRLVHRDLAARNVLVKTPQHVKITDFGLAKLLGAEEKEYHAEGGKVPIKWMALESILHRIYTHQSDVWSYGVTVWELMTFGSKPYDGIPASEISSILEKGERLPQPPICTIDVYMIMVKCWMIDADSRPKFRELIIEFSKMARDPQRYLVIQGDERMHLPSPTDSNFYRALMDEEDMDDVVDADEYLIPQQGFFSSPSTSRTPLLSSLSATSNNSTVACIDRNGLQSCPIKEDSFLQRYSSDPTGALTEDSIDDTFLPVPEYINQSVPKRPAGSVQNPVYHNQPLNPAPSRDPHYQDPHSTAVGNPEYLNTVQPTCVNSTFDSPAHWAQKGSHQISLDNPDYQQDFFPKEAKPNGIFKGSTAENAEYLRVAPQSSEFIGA
T1 sequence (Q02763 824-1096 limits assumed, species assumed): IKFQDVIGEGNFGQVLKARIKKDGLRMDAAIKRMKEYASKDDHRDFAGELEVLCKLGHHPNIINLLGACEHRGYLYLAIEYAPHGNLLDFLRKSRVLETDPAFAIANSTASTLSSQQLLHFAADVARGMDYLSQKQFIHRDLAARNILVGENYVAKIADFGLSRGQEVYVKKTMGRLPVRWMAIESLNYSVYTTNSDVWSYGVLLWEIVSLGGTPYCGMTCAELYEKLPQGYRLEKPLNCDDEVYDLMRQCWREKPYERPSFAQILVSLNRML

pIC50 (HER-1)	pIC50 (Cdk1/cycB)	pIC50 (Tek)	SMILES
< 5.00	< 5.00	< 5.00	COc1ccc(-c2cnn3c(N)c(-c4cccc(Cl)c4)c(C)nc23)cc1 [Example 88, 6-(3-Chloro-phenyl)-3-(4-methoxy-phenyl)-5-methyl-pyrazolo[1,5-a]pyrimidin-7-ylamine]
< 5.00	< 5.00	< 5.00	COc1ccc(-c2cnn3c(N)c(-c4ccc(F)c(Cl)c4)c(C)nc23)cc1OC [Example 94, 6-(3-Chloro-4-fluoro-phenyl)-3-(3,4-dimethoxy-phenyl)-5-methyl-pyrazolo[1,5-a]pyrimidin-7-ylamine]
< 5.00	< 5.00	5.00 to 6.00	Cc1nc2c(-c3cccc(N4C[C@@H](C)O[C@@H](C)C4)c3)cnn2c(N)c1-c1cccc(Cl)c1 [Example 89, 6-(3-Chloro-phenyl)-3-[3-((2R,6S)-2,6-dimethyl-morpholin-4-yl)-phenyl]-5-methyl-pyrazolo[1,5-a]pyrimidin-7-ylamine]
< 5.00	< 5.00	5.00 to 6.00	Cc1nc2c(-c3cccc(N4CCN(CCO)CC4)c3)cnn2c(N)c1-c1cccc(Cl)c1 [Example 90, 2-(4-{3-[7-Amino-6-(3-chloro-phenyl)-5-methyl-pyrazolo[1,5-a]pyrimidin-3-yl]-phenyl}-piperazin-1-yl)-ethanol]
5.00 to 6.00	< 5.00	5.00 to 6.00	Cc1nc2c(-c3cccc(N4CCN(C)CC4)c3)cnn2c(N)c1-c1cccc(Cl)c1 [Example 72, 6-(3-Chloro-phenyl)-5-methyl-3-[3-(4-methyl-piperazin-1-yl)-phenyl]-pyrazolo[1,5-a]pyrimidin-7-ylamine]
< 5.00	< 5.00	< 5.00	Cc1nc2c(-c3cccc(N4CCN(CCO)CC4)c3)cnn2c(N)c1-c1ccc(F)c(Cl)c1 [Example 100, 2-(4-{3-[7-Amino-6-(3-chloro-4-fluoro-phenyl)-5-methyl-pyrazolo[1,5-a]pyrimidin-3-yl]-phenyl}-piperazin-1-yl)-ethanol]
< 5.00	< 5.00	< 5.00	Cc1nc2c(-c3cccc(N4CCN(CCO)CC4)c3)cnn2c(N)c1-c1ccc(F)cc1 [Example 97, 2-(4-{3-[7-Amino-6-(4-fluoro-phenyl)-5-methyl-pyrazolo[1,5-a]pyrimidin-3-yl]-phenyl}-piperazin-1-yl)-ethanol]
5.00 to 6.00	< 5.00	5.00 to 6.00	Cc1nc2c(-c3ccc(N4CCN(C)CC4)cc3)cnn2c(N)c1-c1cccc(Cl)c1 [Example 73, 6-(3-Chloro-phenyl)-5-methyl-3-[4-(4-methyl-piperazin-1-yl)-phenyl]-pyrazolo[1,5-a]pyrimidin-7-ylamine]
< 5.00	< 5.00	< 5.00	COc1ccc(-c2cnn3c(N)c(-c4ccc(F)c(F)c4)c(C)nc23)cc1OC [Example 99, 6-(3,4-Difluoro-phenyl)-3-(3,4-dimethoxy-phenyl)-5-methyl-pyrazolo[1,5-a]pyrimidin-7-ylamine]
< 5.00	< 5.00	< 5.00	Cc1nc2c(-c3ccc(N4CCN(C)CC4)cc3)cnn2c(N)c1-c1ccc(F)c(Cl)c1 [Example 83, 6-(3-Chloro-4-fluoro-phenyl)-5-methyl-3-[4-(4-methyl-piperazin-1-yl)-phenyl]-pyrazolo[1,5-a]pyrimidin-7-ylamine]
< 5.00	< 5.00	> 6.00	Cc1nc2c(-c3cccc(N4CCN(C5CCN(C)CC5)CC4)c3)cnn2c(N)c1-c1cccc(Cl)c1 [Example 81, 6-(3-Chloro-phenyl)-5-methyl-3-{3-[4-(1-methyl-piperidin-4-yl)-piperazin-1-yl]-phenyl}-pyrazolo[1,5-a]pyrimidin-7-ylamine]
< 5.00	< 5.00	< 5.00	Cc1nc2c(-c3cccc(N4CCC(N5CCCC5)CC4)c3)cnn2c(N)c1-c1ccc(F)cc1 [Example 103, 6-(4-Fluoro-phenyl)-5-methyl-3-[3-(4-pyrrolidin-1-yl-piperidin-1-yl)-phenyl]-pyrazolo[1,5-a]pyrimidin-7-ylamine]
